Experiment [1] deals with T1, 5-hydroxytryptamine receptor 1A (Rattus norvegicus, UniProt P19327).
T1 sequence (P19327 whole entry): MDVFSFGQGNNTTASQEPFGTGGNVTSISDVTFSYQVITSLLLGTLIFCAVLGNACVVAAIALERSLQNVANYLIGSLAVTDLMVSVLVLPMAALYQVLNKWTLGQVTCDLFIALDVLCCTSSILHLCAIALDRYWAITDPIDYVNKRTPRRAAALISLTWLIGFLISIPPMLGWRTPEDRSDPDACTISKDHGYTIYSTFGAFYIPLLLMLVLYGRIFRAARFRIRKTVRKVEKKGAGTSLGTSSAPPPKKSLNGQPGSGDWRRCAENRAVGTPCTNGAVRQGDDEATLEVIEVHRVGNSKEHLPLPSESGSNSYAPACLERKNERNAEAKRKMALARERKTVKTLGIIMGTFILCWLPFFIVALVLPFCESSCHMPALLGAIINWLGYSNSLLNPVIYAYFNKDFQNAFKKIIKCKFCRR
As to the kind of experiment: (§1) Concentration necessary to achieve half maximal inhibition of [3H]8-Hydroxy-2-(di-n-propylamino)tetralin binding to 5-hydroxytryptamine 1A receptor at 1 uM.

The target in experiment [2] is T2, 5-hydroxytryptamine receptor 1B (Rattus norvegicus, UniProt P28564). The experiment in a line: (§2) Concentration necessary to achieve half maximal inhibition of [125I]- Iodocyanopindolol binding to 5-hydroxytryptamine 1B receptor at 1 uM.
T2 sequence (P28564 whole entry): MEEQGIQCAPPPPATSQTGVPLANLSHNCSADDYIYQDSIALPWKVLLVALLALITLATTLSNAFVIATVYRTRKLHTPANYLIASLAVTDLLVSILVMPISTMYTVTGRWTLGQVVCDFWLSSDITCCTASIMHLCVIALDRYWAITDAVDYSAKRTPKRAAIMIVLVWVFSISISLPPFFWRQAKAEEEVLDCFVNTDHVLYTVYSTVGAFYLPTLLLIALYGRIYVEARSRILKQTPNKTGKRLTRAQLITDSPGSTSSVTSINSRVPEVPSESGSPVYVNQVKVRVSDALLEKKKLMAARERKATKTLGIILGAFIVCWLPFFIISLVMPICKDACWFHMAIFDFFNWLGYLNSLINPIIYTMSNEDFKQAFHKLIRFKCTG
Experiment [3] concerns the target T3, Serotonin 2 (5-HT2) receptor (Rattus norvegicus, UniProt P30994+P08909+P14842). As to the kind of experiment: (§3) Concentration necessary to achieve half maximal inhibition of [3H]ketanserin binding to 5-hydroxytryptamine 2 receptor at 1 uM. Type of experiment: protein assay.
Experiment [4] has as its target T4, Alpha-2A adrenergic receptor (Bos taurus, UniProt Q28838).
T4 sequence (Q28838 whole entry): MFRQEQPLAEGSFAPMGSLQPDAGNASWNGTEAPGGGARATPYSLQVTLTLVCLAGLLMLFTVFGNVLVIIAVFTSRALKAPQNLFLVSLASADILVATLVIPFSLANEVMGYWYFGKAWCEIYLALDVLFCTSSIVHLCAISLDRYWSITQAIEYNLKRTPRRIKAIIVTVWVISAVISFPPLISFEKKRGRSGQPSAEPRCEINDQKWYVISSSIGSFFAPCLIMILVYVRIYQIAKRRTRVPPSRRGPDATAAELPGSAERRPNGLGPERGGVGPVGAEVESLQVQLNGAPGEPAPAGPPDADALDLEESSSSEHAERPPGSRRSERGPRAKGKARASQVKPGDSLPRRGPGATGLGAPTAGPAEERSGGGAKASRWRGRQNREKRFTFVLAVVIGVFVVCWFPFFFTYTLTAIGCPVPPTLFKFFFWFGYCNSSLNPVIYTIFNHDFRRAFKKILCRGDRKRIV
The experiment in a line: Concentration necessary to achieve half maximal inhibition of [3H]clonidine binding to alpha-2 adrenergic receptor at 1 uM.

The target in experiment [5] is T5, Dopamine receptor (Bos taurus) (UniProt Q95136+P20288). The experiment in a line: (§4) Concentration necessary to achieve half maximal inhibition of [3H](+)-[…]-6,7-dihydroxy-1,2,3,4-tetrahydronaphthalene binding to dopamine receptor at 1 uM. The format is protein assay.
For experiment [6], the target named is T5, Dopamine receptor (Bos taurus). As to the kind of experiment: (§5) Concentration necessary to achieve half maximal inhibition of [3H]spiperone binding dopamine receptor at 1 uM. Type of experiment: protein assay.
Experiment [7] concerns the target 5-hydroxytryptamine receptor 1B (Rattus norvegicus) (UniProt P28564). The experiment is described as §2.
Experiment [8] has as its target T3, Serotonin 2 (5-HT2) receptor. As to the kind of experiment: Concentration necessary to achieve half maximal inhibition of [3H]-ketanserin binding to 5-hydroxytryptamine 2 receptor. The format is protein assay.
The target of experiment [9] is T6, Dopamine receptor (Bos taurus, UniProt Q95136+P20288). The description is as §4. Type of experiment: protein assay.
Experiment [10] concerns the target T6, Dopamine receptor. The experiment is described as §5. The format is protein assay.
In experiment [11] the target is T7, 5-hydroxytryptamine receptor 1A (Rattus norvegicus) (UniProt P19327).
T7 sequence (whole entry): T1 sequence (P19327 whole entry)
Described as §1.

Experiment [12] addresses T8, Serotonin 2 (5-HT2) receptor (Rattus norvegicus) (UniProt P30994+P08909+P14842). The experiment is described as §3. The format is protein assay.
The target of experiment [13] is T9, Alpha-2A adrenergic receptor (Bos taurus) (UniProt Q28838).
T9 sequence (whole entry): T4 sequence (Q28838 whole entry)
As to the kind of experiment: Concentration necessary to achieve half maximal inhibition of [3H]clonidine binding to alpha-2 adrenergic receptorat 1 uM.

Experiment [14] concerns the target T3, Serotonin 2 (5-HT2) receptor. As to the kind of experiment: (§6) Concentration necessary to achieve half maximal inhibition of [3H]ketanserin, binds to 5-hydroxytryptamine 2 receptor at 1 uM. The format is protein assay.
Experiment [15] deals with T4, Alpha-2A adrenergic receptor.
Description: Concentration necessary to achieve half maximal inhibition of [3H]clonidine binding to Alpha-2 adrenergic receptor at 1 uM
Experiment [16] has as its target T2, 5-hydroxytryptamine receptor 1B. The experiment in a line: Concentration necessary to achieve half maximal inhibition of [125I]- Iodocyanopindolol, binds to 5-hydroxytryptamine 1B receptor at 1 uM.
In experiment [17] the target is T8, Serotonin 2 (5-HT2) receptor (Rattus norvegicus). The experiment is described as §6. Type of experiment: protein assay.

IC50, Change and inhibition data for 22 molecules are collected here from ChEMBL document CHEMBL1124434, “2H-[1]benzopyrano[3,4-b]pyridines: synthesis and activity at central monoamine receptors” (J Med Chem, 1989).

SMILES strings stand for the structures. pIC50: −log10 of the molar value.

T8 sequence (P08909 whole entry, looked up): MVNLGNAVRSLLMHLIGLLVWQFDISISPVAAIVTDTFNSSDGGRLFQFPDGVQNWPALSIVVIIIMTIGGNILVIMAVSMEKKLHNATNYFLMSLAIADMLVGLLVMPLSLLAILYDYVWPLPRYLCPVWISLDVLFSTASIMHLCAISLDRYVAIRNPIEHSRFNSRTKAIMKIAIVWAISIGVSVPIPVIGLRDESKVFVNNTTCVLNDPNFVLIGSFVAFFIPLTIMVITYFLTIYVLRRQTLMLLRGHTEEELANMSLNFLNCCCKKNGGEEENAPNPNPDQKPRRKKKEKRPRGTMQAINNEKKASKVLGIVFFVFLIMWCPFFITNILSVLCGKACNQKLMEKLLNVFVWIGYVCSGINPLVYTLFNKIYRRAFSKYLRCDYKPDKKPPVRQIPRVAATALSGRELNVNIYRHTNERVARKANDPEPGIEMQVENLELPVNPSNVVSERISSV
T8 sequence (P14842 whole entry, looked up): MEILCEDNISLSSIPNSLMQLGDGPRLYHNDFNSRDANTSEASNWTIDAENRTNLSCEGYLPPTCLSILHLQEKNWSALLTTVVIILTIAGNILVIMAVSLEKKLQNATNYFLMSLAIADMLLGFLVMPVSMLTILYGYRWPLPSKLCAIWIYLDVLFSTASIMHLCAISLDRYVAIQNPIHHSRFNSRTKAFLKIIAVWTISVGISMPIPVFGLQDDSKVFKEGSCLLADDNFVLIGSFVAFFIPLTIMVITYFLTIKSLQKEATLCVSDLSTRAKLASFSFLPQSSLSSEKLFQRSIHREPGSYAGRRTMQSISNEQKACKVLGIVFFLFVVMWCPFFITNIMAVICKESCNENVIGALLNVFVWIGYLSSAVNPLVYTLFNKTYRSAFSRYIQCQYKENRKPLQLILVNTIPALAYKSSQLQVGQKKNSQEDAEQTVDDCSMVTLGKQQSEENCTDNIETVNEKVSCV
T8 sequence (P30994 whole entry, looked up): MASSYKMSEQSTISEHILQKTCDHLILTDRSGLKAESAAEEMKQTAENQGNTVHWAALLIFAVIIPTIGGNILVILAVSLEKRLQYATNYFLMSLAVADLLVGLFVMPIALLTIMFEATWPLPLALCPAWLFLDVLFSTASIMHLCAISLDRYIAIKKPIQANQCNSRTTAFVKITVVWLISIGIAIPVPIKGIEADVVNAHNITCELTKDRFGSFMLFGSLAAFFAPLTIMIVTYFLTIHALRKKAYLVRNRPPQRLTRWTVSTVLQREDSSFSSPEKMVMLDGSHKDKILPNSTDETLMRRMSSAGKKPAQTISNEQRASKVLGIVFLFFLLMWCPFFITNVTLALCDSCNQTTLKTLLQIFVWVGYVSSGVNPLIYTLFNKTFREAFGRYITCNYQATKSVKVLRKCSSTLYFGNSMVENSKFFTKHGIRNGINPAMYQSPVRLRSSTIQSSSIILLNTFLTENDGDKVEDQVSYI
5-hydroxytryptamine receptor 1B (Rattus norvegicus), sequence (P28564 whole entry): as the sequence (P28564 whole entry) above

For the molecule `COc1cc(C)cc2c1[C@H]1CCCN(C)[C@@H]1CO2`, the pIC50 in [1] is 7.12; in experiment [2], 6.08; in experiment [4], 6.02. Besides, the IC50 in experiment [3] worked out at 42 nM. In addition, the Change in experiment [5] was -11%; in experiment [6], -39%.

`Cc1ccc(O)c2c1[C@H]1CCCN(C)[C@@H]1CO2`: the values for the pIC50 in experiment [1] and in [4] were 7.12 and 5.99, respectively. The Change in experiment [7] was -10%. Further, the IC50 in [8] amounted to 97 nM; in experiment [9], 26 nM; in experiment [10], 170 nM.

For the molecule `CCCN1CCC=C2c3cccc(O)c3OCC21` (stereo unspecified), the Change in experiment [11] was -36%; in [7], -1%; in [12], -14%; in experiment [13] it was -34%; in experiment [5] it was -10%; in experiment [6], -17%.

Turning to `CCCN1CCC[C@@H]2c3ccccc3OC[C@H]21`, the pIC50 was 6.66 in experiment [1] and 7.06 in [4]. Also, the figures for the Change in experiment [7], in experiment [5] and in experiment [6] were -10%, -24% and -19%, respectively. Also, the IC50 in experiment [14] was 178 nM.

The molecule `Clc1cccc(Cl)c1N=C1NCCN1` [CLONIDINE] showed a pIC50 in experiment [15] of 8.70.

In the case of `FC(F)(F)c1cccc(N2CCNCC2)c1`, the pIC50 in experiment [2] was 7.29.

For the molecule `COc1ccc(C)c2c1OC[C@@H]1[C@@H]2CCCN1C`, in experiment [1], the pIC50 is 7.72. The Change was -35% in experiment [7]; -44% in experiment [12]; -12% in [13]; -6% in experiment [5]; -15% in experiment [6].

In the case of `CCCN1CCC=C2c3c(OC)cccc3OCC21` (stereo unspecified), the pIC50 was 8.74 in experiment [1], 5.88 in experiment [16] and 6.82 in experiment [4]. The same molecule registered an IC50 in experiment [14] of 839 nM. Further, the Change is -13% in experiment [5] and -36% in experiment [6].

In the case of `CCCCN1CCC[C@@H]2c3cccc(O)c3OC[C@H]21`, the pIC50 was 5.92 in experiment [1] and 7.41 in experiment [4]. Also, the Change in experiment [7] is 0%; in [17], -40%. In addition, the results for the IC50 in experiment [9] and in [10] were 8 nM and 260 nM, respectively.

Turning to `CCCN1CCC[C@@H]2c3c(OC)cccc3OC[C@H]21`, the pIC50 in experiment [1] is 8.05; in experiment [4], 7.15. The Change in [7] is -19%; in experiment [5], -9%; in experiment [6], -53%. The IC50 in experiment [3] amounted to 114 nM.

As to `CCCN1CCC[C@@H]2c3cc(O)ccc3OC[C@H]21`, the pIC50 in [1] is 5.92; in experiment [4] it was 6.25. For the same molecule, the results for the Change in experiment [7] and in experiment [12] were -1% and -30%, respectively. For the same molecule, the IC50 worked out at 9 nM in experiment [9] and 1260 nM in [10].

For `CN1CCC[C@@H]2c3cccc(O)c3OC[C@H]21`, the Change is -45% in [11], -2% in [7], -41% in experiment [13] and -46% in experiment [6]. In addition, the IC50 amounted to 1260 nM in experiment [3] and 11 nM in experiment [9].

On to `CN1CCC=C2c3cc(O)ccc3OCC21` (stereo unspecified), for which the figures for the Change in [11], in [7] and in [12] were -42%, -6% and -32%, respectively. Moreover, in experiment [9], the IC50 was 20 nM. For the same molecule, in experiment [6], the inhibition stood at 3%.

For the molecule `CCCN1CCC=C2c3cc(O)ccc3OCC21` (stereo unspecified), the pIC50 was 6.61 in experiment [1] and 6.20 in [4]. For the same molecule, the Change was 0% in experiment [7] and -14% in experiment [12]. For the same molecule, the IC50 in [9] turned out to be 51 nM; in experiment [10], 4190 nM.

Turning to `CCCN1CCC=C2c3ccccc3OCC21` (stereo unspecified), the pIC50 in experiment [1] is 7.13; in experiment [4], 6.68. Moreover, the Change in experiment [7] is -11%; in [12], -22%; in experiment [5], -15%; in [6], -13%.

As to `CN1CCC[C@@H]2c3cc(O)ccc3OC[C@H]21`, the Change in experiment [11] was -13%; in experiment [7], 6%; in experiment [12] it was -27%; in experiment [13], -64%. Moreover, the IC50 in experiment [9] is 114 nM; in experiment [10], 4080 nM.

Consider `CCCN1CCC[C@@H]2c3c(OC)cc(C)cc3OC[C@H]21`, for which the results for the pIC50 in [1] and in experiment [4] were 6.73 and 6.30, respectively. The results for the Change in experiment [7], in [5] and in [6] were -31%, -15% and -36%, respectively. Moreover, in [14], the IC50 stood at 86 nM.

Take `CCCN1CCC[C@@H]2c3cccc(O)c3OC[C@H]21`: the figures for the pIC50 in experiment [1] and in experiment [4] were 6.00 and 7.11, respectively. Besides, the Change in experiment [7] was -2%. Besides, the IC50 was found to be 1100 nM in experiment [3], 30 nM in [9] and 260 nM in experiment [10].

Molecule `CN(C)CCCSc1ccccc1NC(=O)/C=C/c1ccccc1` [CINANSERIN] had an IC50 in experiment [3] of 2 nM.

For the molecule `COc1cccc2c1OC[C@@H]1[C@@H]2CCCN1C`, the pIC50 in [1] was 6.60. The inhibition in experiment [7] came to 7%. Moreover, in experiment [3], the IC50 turned out to be 920 nM. Also, the Change was -24% in experiment [13], -23% in experiment [5] and -22% in experiment [6].

`CCCN1CCC[C@@H]2c3ccc(O)cc3OC[C@H]21`: the Change in experiment [11] is -17%; in [7] it was -1%; in experiment [12] it was -14%. Besides, the pIC50 in experiment [4] was 6.60. Also, the IC50 in [9] stood at 16 nM; in [10], 4830 nM.

For the molecule `CCCN1CCC[C@@H]2c3c(O)cccc3OC[C@H]21`, the pIC50 is 8.40 in experiment [1] and 6.44 in experiment [4]. Further, the Change is -4% in experiment [7], -12% in [5] and -23% in experiment [6]. The molecule further had an IC50 in experiment [3] of 384 nM.
